# Patent US20240115654A1, “INTRAVENOUS ADMINISTRATION OF ENGINEERED ANTIMICROBIAL AMPHIPHILIC PEPTIDES” (priority 2021, published 2024)
# Read-outs that look alike come from different tables or passages of the source. Peptide text beside a SMILES is read from it.
# Conditions: human, in vivo; for Vd: mean apparent volume of distribution (Vz)
# 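Note: phase 1 study in human subjects given one IV dose of the peptide, enrolled in sequential ascending-dose cohorts and randomized to peptide or placebo.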
smiles,measurement,setting,value
CC(C)[C@H](NC(=O)[C@H](Cc1c[nH]c2ccccc12)NC(=O)[C@H](CCCNC(=N)N)NC(=O)[C@H](CCCNC(=N)N)NC(=O)[C@@H](NC(=O)[C@@H](NC(=O)[C@H](CCCNC(=N)N)NC(=O)[C@@H](NC(=O)[C@@H](NC(=O)[C@H](CCCNC(=N)N)NC(=O)[C@H](CCCNC(=N)N)NC(=O)[C@H](Cc1c[nH]c2ccccc12)NC(=O)[C@@H](NC(=O)[C@H](CCCNC(=N)N)NC(=O)[C@H](CCCNC(=N)N)NC(=O)[C@@H](NC(=O)[C@H](CCCNC(=N)N)NC(=O)[C@H](CCCNC(=N)N)NC(=O)[C@@H](NC(=O)[C@H](Cc1c[nH]c2ccccc12)NC(=O)[C@H](CCCNC(=N)N)NC(=O)[C@@H](N)CCCNC(=N)N)C(C)C)C(C)C)C(C)C)C(C)C)C(C)C)C(C)C)C(C)C)C(=O)N[C@@H](CCCNC(=N)N)C(=O)N[C@@H](CCCNC(=N)N)C(N)=O [SEQ ID NO: 1] (H-RRWVRRVRRVWRRVVRVVRRWVRR-NH2),half-life,"iv, […], t1/2, […] IV 1-hr infusion (only 3 participants)",19.9 h
same,half-life,"iv, […], t1/2, […] IV 2-hr infusion",13.2 h
same,Tmax,"iv, median Tmax, 0.05 and […] doses, 1-hour IV infusion (Cohorts 1, 2)",1.02 h
same,Tmax,"iv, median Tmax, 0.25 and 0.5 mg/kg doses, 2-hour IV infusion (Cohorts 3b, 4)",2.02 h
same,half-life,"iv, t1/2, Cohort 1, 0.05 mg/kg IV infusion, Geometric Mean",7.33 h
same,half-life,"iv, t1/2, Cohort 1, 0.05 mg/kg IV infusion, Mean",7.36 h
same,half-life,"iv, t1/2, Cohort 1, 0.05 mg/kg IV infusion, Median",7.29 h
same,half-life,"iv, t1/2, Cohort 1, 0.05 mg/kg IV infusion, cohort Geometric Mean",7.33 h
same,half-life,"iv, t1/2, Cohort 1, 0.05 mg/kg IV infusion, cohort Mean",7.36 h
same,half-life,"iv, t1/2, Cohort 1, 0.05 mg/kg IV infusion, cohort Median",7.29 h
same,half-life,"iv, t1/2, Cohort 1, 0.05 mg/kg IV infusion, individual subject",6.62 h
same,half-life,"iv, t1/2, Cohort 1, 0.05 mg/kg IV infusion, individual subjects",6.62 h
same,half-life,"iv, t1/2, Cohort 2, […] IV infusion, Geometric Mean",10.1 h
same,half-life,"iv, t1/2, Cohort 2, […] IV infusion, Mean",10.5 h
same,half-life,"iv, t1/2, Cohort 2, […] IV infusion, Median",9.2 h
same,half-life,"iv, t1/2, Cohort 2, […] IV infusion, cohort Geometric Mean",10.1 h
same,half-life,"iv, t1/2, Cohort 2, […] IV infusion, cohort Mean",10.5 h
same,half-life,"iv, t1/2, Cohort 2, […] IV infusion, cohort Median",9.2 h
same,half-life,"iv, t1/2, Cohort 3, […] IV infusion, Geometric Mean",13.6 h
same,half-life,"iv, t1/2, Cohort 3, […] IV infusion, Mean",15.2 h
same,half-life,"iv, t1/2, Cohort 3, […] IV infusion, Median",19 h
same,half-life,"iv, t1/2, Cohort 3, […] IV infusion, cohort Geometric Mean",13.6 h
same,half-life,"iv, t1/2, Cohort 3, […] IV infusion, cohort Mean",15.2 h
same,half-life,"iv, t1/2, Cohort 3, […] IV infusion, cohort Median",19 h
same,half-life,"iv, t1/2, Cohort 3b, […] IV infusion 2 hours, Geometric Mean",12.8 h
same,half-life,"iv, t1/2, Cohort 3b, […] IV infusion 2 hours, Mean",13.1 h
same,half-life,"iv, t1/2, Cohort 3b, […] IV infusion 2 hours, Median",13.1 h
same,half-life,"iv, t1/2, Cohort 3b, […] IV infusion 2 hours, individual subject",17.5 h
same,half-life,"iv, t1/2, Cohort 3b, infusion 2 hours, cohort Geometric Mean",12.8 h
same,half-life,"iv, t1/2, Cohort 3b, infusion 2 hours, cohort Mean",13.1 h
same,half-life,"iv, t1/2, Cohort 3b, infusion 2 hours, cohort Median",13.1 h
same,half-life,"iv, t1/2, Cohort 3b, infusion 2 hours, individual subjects",17.5 h
same,half-life,"iv, t1/2, Cohort 4, 0.5 mg/kg IV infusion 2 hours, Geometric Mean",15.7 h
same,half-life,"iv, t1/2, Cohort 4, 0.5 mg/kg IV infusion 2 hours, Mean",16.2 h
same,half-life,"iv, t1/2, Cohort 4, 0.5 mg/kg IV infusion 2 hours, Median",15.6 h
same,half-life,"iv, t1/2, Cohort 4, 0.5 mg/kg IV infusion 2 hours, individual subject",12.6 h
same,half-life,"iv, t1/2, Cohort 4, 0.5 mg/kg IV, infusion 2 hours, cohort Geometric Mean",15.7 h
same,half-life,"iv, t1/2, Cohort 4, 0.5 mg/kg IV, infusion 2 hours, cohort Mean",16.2 h
same,half-life,"iv, t1/2, Cohort 4, 0.5 mg/kg IV, infusion 2 hours, cohort Median",15.6 h
same,half-life,"iv, t1/2, Cohort 4, 0.5 mg/kg IV, infusion 2 hours, individual subjects",12.6 h
same,half-life,"iv, t1/2, Cohort 5, 1 mg/kg IV infusion 4 hours, Geometric Mean",18.6 h
same,half-life,"iv, t1/2, Cohort 5, 1 mg/kg IV infusion 4 hours, Mean",19.9 h
same,half-life,"iv, t1/2, Cohort 5, 1 mg/kg IV infusion 4 hours, Median",20.9 h
same,Tmax,"mean Tmax, Cohort 1, from the start of infusion",0.85 h
same,Tmax,"mean Tmax, Cohort 5, from the start of infusion",4.19 h
same,Vd,Cohort 1,25.5 L
same,Vd,Cohort 5,94.2 L
same,half-life,"mean half-life, Cohorts 1 to 3 (0.05 to […], 1-hour infusion), increasing with dose",7.22 to 15.2 h
same,half-life,"mean half-life, Cohorts 3b and 4 (0.25 and 0.5 mg/kg, 2-hour infusion), increasing with dose",13.1 to 16.2 h
same,half-life,"mean terminal half-life, range over dose groups, dose range 0.05 to 0.5 mg/kg (Cohorts 1 to 4)",7.4 to 19.9 h
same,half-life,"t1/2, single 1-hour infusion 0.05 mg/kg, Geometric Mean",7.33 h
same,half-life,"t1/2, single 1-hour infusion 0.05 mg/kg, Mean",7.36 h
same,half-life,"t1/2, single 1-hour infusion 0.05 mg/kg, Median",7.29 h
same,half-life,"t1/2, single 1-hour infusion 0.05 mg/kg, individual subjects",6.62 h
